Results published in EP4722207A1, “OXOISOINDOLINYL-SUBSTITUTED TETRAHYDROPYRIMIDINEDIONE DERIVATIVE AND USE THEREOF” (Gluetacs Therapeutics (Shanghai) Co., Ltd., priority 2023, dated 2024).

Legend:
WEE1 = biological target: T1, WEE1 (Homo sapiens, UniProt P30291+Q96SW2); experiment: Western-blot assay, substrate protein degradation in hPBMCs: WEE1; assay type: cell-based; conditions: for WEE1 substrate protein remaining %: compounds at 50 nM and 500 nM, 24 hours; for substrate protein remaining % WEE1: 24 hours of compound treatment, 50 nM and 500 nM
T1 construct: effects of the compounds of the present disclosure on the expression of target proteins in cells; endogenous in cells; host or cells: human PBMCs (hPBMCs)

IKZF1 = biological target: T2, IKZF1 (Homo sapiens, UniProt Q13422+Q96SW2); experiment: Western-blot assay, substrate protein degradation in hPBMCs: IKZF1; assay type: cell-based; conditions: for IKZF1 substrate protein remaining %: compounds at 50 nM and 500 nM, 24 hours; for substrate protein remaining % IKZF1: 24 hours of compound treatment, 50 nM and 500 nM
T2 construct: effects of the compounds of the present disclosure on the expression of target proteins in cells; endogenous in cells; host or cells: human PBMCs (hPBMCs)
T2 sequence (Q13422 whole entry): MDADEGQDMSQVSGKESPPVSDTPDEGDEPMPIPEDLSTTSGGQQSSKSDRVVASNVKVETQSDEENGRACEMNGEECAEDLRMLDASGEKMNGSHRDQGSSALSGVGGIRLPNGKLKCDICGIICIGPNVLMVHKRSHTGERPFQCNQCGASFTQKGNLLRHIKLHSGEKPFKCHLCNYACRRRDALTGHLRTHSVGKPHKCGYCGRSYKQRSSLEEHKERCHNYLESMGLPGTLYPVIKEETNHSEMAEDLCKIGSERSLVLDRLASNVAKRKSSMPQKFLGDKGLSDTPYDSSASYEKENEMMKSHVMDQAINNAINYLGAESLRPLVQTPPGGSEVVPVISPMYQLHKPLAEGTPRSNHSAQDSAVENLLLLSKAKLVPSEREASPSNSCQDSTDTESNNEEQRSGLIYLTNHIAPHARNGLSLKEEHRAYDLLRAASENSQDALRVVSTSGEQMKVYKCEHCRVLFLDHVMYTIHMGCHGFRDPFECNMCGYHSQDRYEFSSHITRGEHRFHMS
T2 sequence (Q96SW2 whole entry): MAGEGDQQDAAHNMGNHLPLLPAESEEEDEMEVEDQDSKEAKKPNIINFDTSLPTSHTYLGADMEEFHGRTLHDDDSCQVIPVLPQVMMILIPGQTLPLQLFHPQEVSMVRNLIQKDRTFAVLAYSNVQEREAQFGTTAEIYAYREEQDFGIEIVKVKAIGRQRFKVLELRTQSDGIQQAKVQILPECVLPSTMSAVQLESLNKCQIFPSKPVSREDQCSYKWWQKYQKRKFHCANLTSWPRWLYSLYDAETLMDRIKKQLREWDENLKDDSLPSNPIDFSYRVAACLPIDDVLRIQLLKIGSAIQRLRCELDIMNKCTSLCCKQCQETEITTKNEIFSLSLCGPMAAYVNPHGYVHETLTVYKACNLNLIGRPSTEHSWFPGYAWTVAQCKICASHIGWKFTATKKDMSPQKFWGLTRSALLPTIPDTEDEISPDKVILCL
T2 sequence (Q16531 whole entry partner): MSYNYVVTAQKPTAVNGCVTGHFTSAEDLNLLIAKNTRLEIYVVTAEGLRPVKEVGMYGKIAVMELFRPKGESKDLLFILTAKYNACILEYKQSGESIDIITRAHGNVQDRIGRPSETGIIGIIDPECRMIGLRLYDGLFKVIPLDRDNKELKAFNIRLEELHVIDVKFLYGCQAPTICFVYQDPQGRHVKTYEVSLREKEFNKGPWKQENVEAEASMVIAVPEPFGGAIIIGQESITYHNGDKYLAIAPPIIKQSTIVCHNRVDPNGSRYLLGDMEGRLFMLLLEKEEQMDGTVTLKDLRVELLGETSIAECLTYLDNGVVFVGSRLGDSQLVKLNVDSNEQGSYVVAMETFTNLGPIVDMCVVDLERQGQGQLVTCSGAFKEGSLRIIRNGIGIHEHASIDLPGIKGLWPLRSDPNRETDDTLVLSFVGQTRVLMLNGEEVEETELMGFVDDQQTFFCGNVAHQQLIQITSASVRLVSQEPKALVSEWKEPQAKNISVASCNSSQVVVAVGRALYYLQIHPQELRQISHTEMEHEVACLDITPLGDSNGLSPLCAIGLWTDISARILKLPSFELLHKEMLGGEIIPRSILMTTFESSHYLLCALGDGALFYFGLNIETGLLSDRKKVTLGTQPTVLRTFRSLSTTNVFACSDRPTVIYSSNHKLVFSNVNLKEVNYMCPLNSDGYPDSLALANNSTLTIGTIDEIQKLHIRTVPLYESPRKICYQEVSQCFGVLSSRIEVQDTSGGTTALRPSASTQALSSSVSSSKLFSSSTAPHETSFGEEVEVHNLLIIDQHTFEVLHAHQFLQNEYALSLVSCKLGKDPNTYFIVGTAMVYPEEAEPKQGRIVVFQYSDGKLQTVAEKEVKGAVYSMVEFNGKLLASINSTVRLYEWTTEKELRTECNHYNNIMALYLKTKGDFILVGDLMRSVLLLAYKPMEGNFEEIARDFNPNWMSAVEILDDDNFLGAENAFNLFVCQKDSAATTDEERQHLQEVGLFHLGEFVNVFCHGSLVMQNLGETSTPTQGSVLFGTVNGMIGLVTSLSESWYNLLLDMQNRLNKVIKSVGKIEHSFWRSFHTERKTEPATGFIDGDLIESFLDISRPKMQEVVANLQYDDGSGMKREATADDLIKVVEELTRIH

IKZF2 = biological target: T3, IKZF2 (Homo sapiens, UniProt Q96SW2+Q9UKS7); experiment: Western-blot assay, substrate protein degradation in hPBMCs: IKZF2; assay type: cell-based; conditions: for IKZF2 substrate protein remaining %: compounds at 50 nM and 500 nM, 24 hours; for substrate protein remaining % IKZF2: 24 hours of compound treatment, 50 nM and 500 nM
T3 construct: effects of the compounds of the present disclosure on the expression of target proteins in cells; endogenous in cells; host or cells: human PBMCs (hPBMCs)
T3 sequence (Q9UKS7 whole entry): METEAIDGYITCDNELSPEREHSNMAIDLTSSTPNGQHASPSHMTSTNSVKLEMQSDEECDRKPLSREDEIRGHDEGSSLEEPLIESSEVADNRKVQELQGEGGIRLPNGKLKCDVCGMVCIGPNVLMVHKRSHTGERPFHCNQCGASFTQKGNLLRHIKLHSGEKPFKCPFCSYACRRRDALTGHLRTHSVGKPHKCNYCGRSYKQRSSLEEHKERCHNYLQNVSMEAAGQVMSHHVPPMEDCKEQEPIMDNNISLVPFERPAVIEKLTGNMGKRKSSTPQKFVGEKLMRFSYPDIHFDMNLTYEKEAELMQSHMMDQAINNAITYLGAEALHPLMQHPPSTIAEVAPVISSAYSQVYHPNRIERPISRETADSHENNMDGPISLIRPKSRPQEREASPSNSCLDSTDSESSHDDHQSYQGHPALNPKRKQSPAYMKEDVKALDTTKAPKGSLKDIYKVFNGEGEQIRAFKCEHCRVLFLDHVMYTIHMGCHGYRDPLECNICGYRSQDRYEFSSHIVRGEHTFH
T3 sequence (Q96SW2 whole entry): as the sequence (Q96SW2 whole entry) above
T3 sequence (Q16531 whole entry partner): as the sequence (Q16531 whole entry partner) above

IKZF3 = biological target: T4, IKZF3 (Homo sapiens, UniProt Q96SW2+Q9UKT9); experiment: Western-blot assay, substrate protein degradation in hPBMCs: IKZF3; assay type: cell-based; conditions: for IKZF3 substrate protein remaining %: compounds at 50 nM and 500 nM, 24 hours; for substrate protein remaining % IKZF3: 24 hours of compound treatment, 50 nM and 500 nM
T4 construct: effects of the compounds of the present disclosure on the expression of target proteins in cells; endogenous in cells; host or cells: human PBMCs (hPBMCs)
T4 sequence (Q9UKT9 whole entry): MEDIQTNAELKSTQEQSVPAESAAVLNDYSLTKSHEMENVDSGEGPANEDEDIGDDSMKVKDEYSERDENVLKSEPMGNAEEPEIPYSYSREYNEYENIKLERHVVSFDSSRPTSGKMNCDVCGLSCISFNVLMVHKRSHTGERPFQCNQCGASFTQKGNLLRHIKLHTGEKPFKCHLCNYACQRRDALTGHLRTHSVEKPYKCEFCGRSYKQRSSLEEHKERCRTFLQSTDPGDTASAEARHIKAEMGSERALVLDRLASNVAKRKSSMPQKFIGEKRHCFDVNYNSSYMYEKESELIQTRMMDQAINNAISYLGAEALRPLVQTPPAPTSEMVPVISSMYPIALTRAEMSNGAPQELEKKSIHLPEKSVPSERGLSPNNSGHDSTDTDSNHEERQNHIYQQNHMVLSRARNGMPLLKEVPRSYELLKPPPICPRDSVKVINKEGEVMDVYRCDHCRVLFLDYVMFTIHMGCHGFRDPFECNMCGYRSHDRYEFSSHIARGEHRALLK
T4 sequence (Q96SW2 whole entry): as the sequence (Q96SW2 whole entry) above
T4 sequence (Q16531 whole entry partner): as the sequence (Q16531 whole entry partner) above

CK1α = biological target: T5, CK1α (Homo sapiens, UniProt P48729+Q96SW2); experiment: Western-blot assay, substrate protein degradation in hPBMCs: CK1α; assay type: cell-based; conditions: for CK1α substrate protein remaining %: compounds at 50 nM and 500 nM, 24 hours; for substrate protein remaining % CK1α: 24 hours of compound treatment, 50 nM and 500 nM
T5 construct: effects of the compounds of the present disclosure on the expression of target proteins in cells; endogenous in cells; host or cells: human PBMCs (hPBMCs)
T5 sequence (P48729 whole entry): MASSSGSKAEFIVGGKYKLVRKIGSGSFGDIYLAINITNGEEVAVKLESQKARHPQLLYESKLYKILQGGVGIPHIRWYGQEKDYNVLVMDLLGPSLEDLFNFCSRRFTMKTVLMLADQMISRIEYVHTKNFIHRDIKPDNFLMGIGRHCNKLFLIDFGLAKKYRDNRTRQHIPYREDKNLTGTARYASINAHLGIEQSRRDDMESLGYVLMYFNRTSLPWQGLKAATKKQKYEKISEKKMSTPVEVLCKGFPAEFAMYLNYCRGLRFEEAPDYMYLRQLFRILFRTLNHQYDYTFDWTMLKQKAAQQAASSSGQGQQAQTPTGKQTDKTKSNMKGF
T5 sequence (Q96SW2 whole entry): as the sequence (Q96SW2 whole entry) above
T5 sequence (Q16531 whole entry partner): as the sequence (Q16531 whole entry partner) above

GSPT1 = biological target: T6, GSPT1 (Homo sapiens, UniProt P15170+Q96SW2); experiment: Western-blot assay, substrate protein degradation in hPBMCs: GSPT1; assay type: cell-based; conditions: for GSPT1 substrate protein remaining %: compounds at 50 nM and 500 nM, 24 hours; for substrate protein remaining % GSPT1: 24 hours of compound treatment, 50 nM and 500 nM
T6 construct: effects of the compounds of the present disclosure on the expression of target proteins in cells; endogenous in cells; host or cells: human PBMCs (hPBMCs)
T6 sequence (P15170 whole entry): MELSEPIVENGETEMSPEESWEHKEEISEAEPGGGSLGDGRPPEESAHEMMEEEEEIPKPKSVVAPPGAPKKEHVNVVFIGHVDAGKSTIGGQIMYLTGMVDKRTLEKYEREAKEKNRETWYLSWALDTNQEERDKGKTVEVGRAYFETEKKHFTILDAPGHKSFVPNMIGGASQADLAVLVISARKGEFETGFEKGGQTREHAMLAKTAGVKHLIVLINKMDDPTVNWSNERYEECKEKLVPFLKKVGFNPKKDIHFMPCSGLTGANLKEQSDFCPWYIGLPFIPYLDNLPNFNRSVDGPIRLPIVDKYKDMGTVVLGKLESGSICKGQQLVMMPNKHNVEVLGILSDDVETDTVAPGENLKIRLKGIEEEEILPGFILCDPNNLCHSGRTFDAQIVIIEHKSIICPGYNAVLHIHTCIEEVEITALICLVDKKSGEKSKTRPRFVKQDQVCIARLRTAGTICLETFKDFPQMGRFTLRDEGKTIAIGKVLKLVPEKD
T6 sequence (Q96SW2 whole entry): as the sequence (Q96SW2 whole entry) above
T6 sequence (Q16531 whole entry partner): as the sequence (Q16531 whole entry partner) above

MM.1S = experiment: Cell viability assay (CellTiter-Meiluncell Luminescent), tumor cell proliferation, MM.1S; conditions: Homo sapiens, MM1.S, 96 h, read-out: inhibitory activity (IC50, nM) against tumor cells proliferation, MM.1S
H292 = experiment: Cell viability assay (CellTiter-Meiluncell Luminescent), tumor cell proliferation, H292; conditions: Homo sapiens, NCI-H292, 96 h; for inhibition at 0.01 µM: read-out: Inhibition Rate at 10 nM (%); for inhibition at 0.5 µM: read-out: Inhibition Rate at 500 nM (%)
MV-4-11 = experiment: Cell viability assay (CellTiter-Meiluncell Luminescent), tumor cell proliferation, MV-4-11; conditions: Homo sapiens, MV4-11, 96 h; for inhibition at 0.01 µM: read-out: Inhibition Rate at 10 nM (%); for inhibition at 0.5 µM: read-out: Inhibition Rate at 500 nM (%)
MDA-MB-231 = experiment: Cell viability assay (CellTiter-Meiluncell Luminescent), tumor cell proliferation, MDA-MB-231; conditions: Homo sapiens, MDA-MB-231, 96 h; for inhibition at 0.01 µM: read-out: Inhibition Rate at 10 nM (%); for inhibition at 0.5 µM: read-out: Inhibition Rate at 500 nM (%)

Row | Structure (SMILES) | WEE1 substrate protein remaining % (WEE1) | IKZF1 substrate protein remaining % (IKZF1) | IKZF2 substrate protein remaining % (IKZF2) | IKZF3 substrate protein remaining % (IKZF3) | CK1α substrate protein remaining % (CK1α) | GSPT1 substrate protein remaining % (GSPT1) | IC50 (MM.1S) [nM] | inhibition at 0.01 µM (H292) [%] | inhibition at 0.5 µM (H292) [%] | inhibition at 0.01 µM (MV-4-11) [%] | inhibition at 0.5 µM (MV-4-11) [%] | inhibition at 0.01 µM (MDA-MB-231) [%] | inhibition at 0.5 µM (MDA-MB-231) [%] | substrate protein remaining % WEE1 (WEE1) | substrate protein remaining % IKZF1 (IKZF1) | substrate protein remaining % IKZF2 (IKZF2) | substrate protein remaining % IKZF3 (IKZF3) | substrate protein remaining % CK1α (CK1α) | substrate protein remaining % GSPT1 (GSPT1)
1 | Cc1ccc(Sc2ccccc2N2CCN(Cc3ccc4c(c3)CN(N3CCC(=O)NC3=O)C4=O)CC2)c(C)c1 [GT-04867, 1-(5-((4-(2-((2,4-dimethylphenyl)thio)phenyl)piperazin-1-yl)methyl)-1-oxoisoindolin-2-yl)dihydropyrimidine-2,4(1H,3H)-dione] | B ("B" is defined as 80%< substrate protein remaining %≤ 100%) | A ("A" is defined as 0% ≤ substrate protein remaining % ≤ 80%) | B ("B" is defined as 80%< substrate protein remaining %≤ 100%) | B ("B" is defined as 80%< substrate protein remaining %≤ 100%) | B ("B" is defined as 80%< substrate protein remaining %≤ 100%) | A ("A" is defined as 0% ≤ substrate protein remaining % ≤ 80%) | 500 to 1000 |  |  |  |  |  |  |  |  |  |  |  | 
2 | O=C1CCN(N2Cc3cc(CN4CC=C(c5ccoc5)CC4)ccc3C2=O)C(=O)N1 [GT-04875, 1-(5-((4-(furan-3-yl)-3,6-dihydropyridin-1(2H)-yl)methyl)-1-oxoisoindolin-2-yl)dihydropyrimidine-2,4(1H,3H)-dione] | A ("A" is defined as 0% ≤ substrate protein remaining % ≤ 80%) | B ("B" is defined as 80%< substrate protein remaining %≤ 100%) | B ("B" is defined as 80%< substrate protein remaining %≤ 100%) | B ("B" is defined as 80%< substrate protein remaining %≤ 100%) | B ("B" is defined as 80%< substrate protein remaining %≤ 100%) | A ("A" is defined as 0% ≤ substrate protein remaining % ≤ 80%) | 300 to 500 |  |  |  |  |  |  |  |  |  |  |  | 
3 | O=C1CCN(N2Cc3cc(CN4CCN(C(c5ccc(F)cc5)c5ccc(F)cc5)CC4)ccc3C2=O)C(=O)N1 [GT-04894, 1-(5-((4-(bis(4-fluorophenyl)methyl)piperazin-1-yl)methyl)-1-oxoisoindolin-2-yl)dihydropyrimidine-2,4(1H,3H)-dione] | A ("A" is defined as 0% ≤ substrate protein remaining % ≤ 80%) | A ("A" is defined as 0% ≤ substrate protein remaining % ≤ 80%) | A ("A" is defined as 0% ≤ substrate protein remaining % ≤ 80%) | B ("B" is defined as 80%< substrate protein remaining %≤ 100%) | B ("B" is defined as 80%< substrate protein remaining %≤ 100%) | A ("A" is defined as 0% ≤ substrate protein remaining % ≤ 80%) | 500 to 1000 |  |  |  |  |  |  |  |  |  |  |  | 
4 | CC1(C)CCC(CN2CCN(Cc3ccc4c(c3)CN(N3CCC(=O)NC3=O)C4=O)CC2)=C(c2ccc(Cl)cc2)C1 [GT-04944, 1-(5-((4-((4'-chloro-5,5-dimethyl-3,4,5,6-tetrahydro-[1,1'-biphenyl]-2-yl)methyl)piperazin-1-yl)methyl)-1-oxoisoindolin-2-yl)dihydropyrimidine-2,4(1H,3H)-dione] | B ("B" is defined as 80%< substrate protein remaining %≤ 100%) | B ("B" is defined as 80%< substrate protein remaining %≤ 100%) | B ("B" is defined as 80%< substrate protein remaining %≤ 100%) | B ("B" is defined as 80%< substrate protein remaining %≤ 100%) | B ("B" is defined as 80%< substrate protein remaining %≤ 100%) | A ("A" is defined as 0% ≤ substrate protein remaining % ≤ 80%) | 500 to 1000 |  |  |  |  |  |  |  |  |  |  |  | 
5 | O=C1CCN(N2Cc3cc(CNC45CC6CC(CC(C6)C4)C5)ccc3C2=O)C(=O)N1 [GT-07806, 1-(5-((((3s,5s,7s)-adamantan-1-yl)amino)methyl)-1-oxoisoindolin-2-yl)dihydropyrimidine-2,4(1H,3H)-dione] |  |  |  |  |  |  |  | 15 to 20 | 15 to 20 | 5 to 10 | 25 to 30 | 18 to 25 | 18 to 25 |  |  |  |  |  | 
6 | O=C1CCN(N2C(=O)c3ccc(CN4CC(=C5CCOc6cc(F)ccc65)C4)cc3C2=O)C(=O)N1 [GT-07888, 2-(2,4-dioxotetrahydropyrimidin-1(2H)-yl)-5-((3-(7-fluorochroman-4-ylidene)azetidin-1-yl)methyl)isoindoline-1,3-dione] |  |  |  |  |  |  |  | 5 to 10 | 10 to 15 | 40 to 60 | 40 to 60 | 18 to 25 | 18 to 25 |  |  |  |  |  | 
7 | O=C1CCN(N2Cc3cc(CN4CCN(c5ncnc6sc(Br)cc56)CC4)ccc3C2=O)C(=O)N1 [GT-08063, 1-(5-((4-(6-bromothieno[2,3-d]pyrimidin-4-yl)piperazin-1-yl)methyl)-1-oxoisoindolin-2-yl)dihydropyrimidine-2,4(1H,3H)-dione] |  |  |  |  |  |  |  | 20 to 40 | 20 to 40 | 18 to 25 | 5 to 10 | 15 to 18 | 15 to 18 | B (80%< substrate protein remaining %≤ 100%) | B (80%< substrate protein remaining %≤ 100%) | A (0% ≤ substrate protein remaining % ≤ 80%) | A (0% ≤ substrate protein remaining % ≤ 80%) | B (80%< substrate protein remaining %≤ 100%) | B (80%< substrate protein remaining %≤ 100%)
8 | O=C1CCN(N2Cc3cc(CN4CCN(c5ncc6ccsc6n5)CC4)ccc3C2=O)C(=O)N1 [GT-08081, 1-(1-oxo-5-((4-(thieno[2,3-d]pyrimidin-2-yl)piperazin-1-yl)methyl)isoindolin-2-yl)dihydropyrimidine-2,4(1H,3H)-dione] |  |  |  |  |  |  |  |  |  | 18 to 25 | 25 to 30 | 18 to 25 | 5 to 10 | A (0% ≤ substrate protein remaining % ≤ 80%) | B (80%< substrate protein remaining %≤ 100%) | B (80%< substrate protein remaining %≤ 100%) | B (80%< substrate protein remaining %≤ 100%) | A (0% ≤ substrate protein remaining % ≤ 80%) | A (0% ≤ substrate protein remaining % ≤ 80%)
9 | Cc1nc(C2CCN(Cc3ccc4c(c3)C(=O)N(N3CCC(=O)NC3=O)C4=O)CC2)c2c(-c3ccccc3)csc2n1 [GT-08110, 2-(2,4-dioxotetrahydropyrimidin-1(2H)-yl)-5-((4-(2-methyl-5-phenylthieno[2,3-d]pyrimidin-4-yl)piperidin-1-yl)methyl)isoindoline-1,3-dione] |  |  |  |  |  |  |  | 20 to 40 | 10 to 15 | 10 to 18 | 18 to 25 | 25 to 40 | 15 to 18 | A (0% ≤ substrate protein remaining % ≤ 80%) | A (0% ≤ substrate protein remaining % ≤ 80%) | A (0% ≤ substrate protein remaining % ≤ 80%) | A (0% ≤ substrate protein remaining % ≤ 80%) | A (0% ≤ substrate protein remaining % ≤ 80%) | A (0% ≤ substrate protein remaining % ≤ 80%)
10 | NCc1ccc2c(c1)CN(N1CCC(=O)NC1=O)C2=O [GT-08118, 1-(5-(aminomethyl)-1-oxoisoindolin-2-yl)dihydropyrimidine-2,4(1H,3H)-dione] |  |  |  |  |  |  |  | 20 to 40 | 20 to 40 | 40 to 60 | 40 to 60 | 18 to 25 | 25 to 40 |  |  |  |  |  | 
